Patent US11697646B2, “Triazole N-linked carbamoyl cyclohexyl acids as LPA antagonists” (BRISTOL-MYERS SQUIBB COMPANY, priority 2017, dated 2023)

Biological target: T1, human LPA1 (Homo sapiens, UniProt Q92633)
T1 construct: expressed in transfected cells; host or cells: Chinese hamster ovary (CHO) cells
Experiment: LPA1 functional antagonist assay (calcium flux)
Format: cell-based
Conditions: CHO cells overexpressing human LPA1; calcium flux induced by 10 nM LPA; read-out: hLPA1 IC50
Procedure: The effectiveness of compounds of the present invention as LPA1 inhibitors can be determined in an LPA1 functional antagonist assay as follows:
The cells were then equilibrated to room temperature for 30 minutes before the assay. […] IC50 values were determined by fitting data to a 4-parameter logistic equation (GraphPad Prism, San Diego Calif.).

T1 sequence (Q92633 whole entry): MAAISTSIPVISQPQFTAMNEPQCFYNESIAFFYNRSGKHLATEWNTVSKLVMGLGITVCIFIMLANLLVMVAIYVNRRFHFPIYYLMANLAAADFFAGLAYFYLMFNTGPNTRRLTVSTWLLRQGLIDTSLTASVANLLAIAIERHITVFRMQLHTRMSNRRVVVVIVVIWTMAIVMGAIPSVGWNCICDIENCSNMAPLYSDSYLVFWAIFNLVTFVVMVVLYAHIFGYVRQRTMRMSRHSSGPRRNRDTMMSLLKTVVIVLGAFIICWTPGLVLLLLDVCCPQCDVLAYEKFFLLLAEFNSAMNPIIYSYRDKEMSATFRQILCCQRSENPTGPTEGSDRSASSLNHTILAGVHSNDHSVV

With `CCCC1(COC(=O)NCc2c(-c3ccc(O[C@H]4CCC[C@H](C(=O)O)C4)c(C)n3)nnn2C)CC1` [Example 60, (1S,3S)-3-((2-methyl-6-(1-methyl-5-(((((1-propylcyclopropyl)methoxy)carbonyl)amino)methyl)-1H-1,2,3-triazol-4-yl)pyridin-3-yl)oxy)cyclohexane-1-carboxylic acid] as the molecule, how does the IC50 read?
The IC50 was 12 nM.

With `Cc1ccc(OC(=O)NCc2c(-c3ccc(O[C@H]4CCC[C@H](C(=O)O)C4)c(C)n3)nnn2C)cc1` [Example 62, (1S,3S)-3-((2-methyl-6-(1-methyl-5-((((p-tolyloxy)carbonyl)amino)methyl)-1H-1,2,3-triazol-4-yl)pyridin-3-yl)oxy)cyclohexane-1-carboxylic acid] as the molecule, how does the IC50 read?
Its IC50 is 148 nM.

With `COc1ccc(OC(=O)NCc2c(-c3ccc(O[C@H]4CCC[C@H](C(=O)O)C4)c(C)n3)nnn2C)cc1` [Example 63, (1S,3S)-3-((6-(5-((((4-methoxyphenoxy)carbonyl)amino)methyl)-1-methyl-1H-1,2,3-triazol-4-yl)-2-methylpyridin-3-yl)oxy)cyclo-hexane-1-carboxylic acid] as the molecule, how does the IC50 read?
The IC50 was 792 nM.

How did the IC50 turn out when `Cc1nc(-c2nnn(C)c2NC(=O)OC(C)(C)C)ccc1O[C@H]1CCC[C@H](C(=O)O)C1` [Example 64, (1S,3S)-3-((6-(5-((tert-butoxycarbonyl)amino)-1-methyl-1H-1,2,3-triazol-4-yl)-2-methylpyridin-3-yl)oxy)cyclohexane-1-carboxylicacid] was run?
Its IC50 is 54 nM.

With `Cc1nc(-c2nnn(C)c2NC(=O)OCCC(C)(C)C)ccc1O[C@H]1CCC[C@H](C(=O)O)C1` [Example 65, (1S,3S)-3-((6-(5-(((3,3-dimethyl-butoxy)carbonyl)amino)-1-methyl-1H-1,2,3-triazol-4-yl)-2-methyl-pyridin-3-yl)oxy)cyclohexane-1-carboxylic acid] as the molecule, how does the IC50 read?
The IC50 was 75 nM.

`Cc1nc(-c2nnn(C)c2NC(=O)OC2CCCC2)ccc1O[C@H]1CCC[C@H](C(=O)O)C1` [Example 66, (1S,3S)-3-((6-(5-(((cyclopentyloxy)carbonyl)amino)-1-methyl-1H-1,2,3-triazol-4-yl)-2-methylpyridin-3-yl)oxy)cyclohexane-1-carboxylic acid] was tested. Which IC50 did it give?
Its IC50 is 68 nM.

With `Cc1nc(-c2nnn(C)c2NC(=O)OCC(C)(C)C)ccc1O[C@H]1CCC[C@H](C(=O)O)C1` [Example 67, (1S,3S)-3-((2-methyl-6-(1-methyl-5-(((neopentyloxy)carbonyl)amino)-1H-1,2,3-triazol-4-yl)pyridin-3-yl)oxy)cyclohexane-1-carboxylic acid] as the molecule, how does the IC50 read?
The IC50 was 72 nM.

For `CCCOC(=O)Nc1c(-c2ccc(O[C@H]3CCC[C@H](C(=O)O)C3)c(C)n2)nnn1C` [Example 68, (1S,3S)-3-((2-methyl-6-(1-methyl-5-((propoxycarbonyl)amino)-1H-1,2,3-triazol-4-yl)pyridin-3-yl)oxy)cyclohexane-1-carboxylic acid], which IC50 is on record?
Its IC50 is 89 nM.

`Cc1nc(-c2nnn(C)c2NC(=O)OC(C)C)ccc1O[C@H]1CCC[C@H](C(=O)O)C1` [Example 70, (1S,3S)-3-((6-(5-((isopropoxycarbonyl)amino)-1-methyl-1H-1,2,3-triazol-4-yl)-2-methylpyridin-3-yl)oxy)cyclohexane-1-carboxylic acid] was tested. Which IC50 did it give?
Its IC50 is 129 nM.

With `CCCCCOC(=O)Nc1c(-c2ccc(O[C@H]3CCC[C@H](C(=O)O)C3)c(C)n2)nnn1C` [Example 71, (1S,3S)-3-((2-methyl-6-(1-methyl-5-(((pentyloxy)carbonyl)amino)-1H-1,2,3-triazol-4-yl)pyridin-3-yl)oxy)cyclohexane-1-carboxylic acid] as the molecule, how does the IC50 read?
The IC50 was 6 nM.

How did the IC50 turn out when `Cc1nc(-c2nnn(C)c2NC(=O)O[C@H](C)c2ccccc2)ccc1O[C@H]1CCC[C@H](C(=O)O)C1` [Example 72, (1S,3S)-3-((2-methyl-6-(1-methyl-5-((((R)-1-phenylethoxy)carbonyl)amino)-1H-1,2,3-triazol-4-yl)pyridin-3-yl)oxy)cyclohexane-1-carboxylic acid] was run?
The IC50 was 26 nM.

`Cc1nc(-c2nnn(C)c2NC(=O)OCCC2CC2)ccc1O[C@H]1CCC[C@H](C(=O)O)C1` [Example 73, (1S,3S)-3-((6-(5-(((2-cyclopropyl-ethoxy)carbonyl)amino)-1-methyl-1H-1,2,3-triazol-4-yl)-2-methyl-pyridin-3-yl)oxy)cyclohexane-1-carboxylic acid] was tested. Which IC50 did it give?
Its IC50 is 11 nM.

`Cc1nc(-c2nnn(C)c2NC(=O)OCC2CC2)ccc1O[C@H]1CCC[C@H](C(=O)O)C1` [Example 74, (1S,3S)-3-((6-(5-(((cyclopropyl-methoxy)carbonyl)amino)-1-methyl-1H-1,2,3-triazol-4-yl)-2-methyl-pyridin-3-yl)oxy)cyclohexane-1-carboxylic acid] was tested. Which IC50 did it give?
The IC50 was 14 nM.

`Cc1nc(-c2nnn(C)c2NC(=O)OCC2CCC2)ccc1O[C@H]1CCC[C@H](C(=O)O)C1` [Example 75] was tested. Which IC50 did it give?
Its IC50 is 22 nM.

Which IC50 does the source give for `Cc1nc(-c2nnn(C)c2NC(=O)OCC2CCCCC2)ccc1O[C@H]1CCC[C@H](C(=O)O)C1` [Example 76, (1S,3S)-3-((6-(5-(((cyclohexyl-methoxy)carbonyl)amino)-1-methyl-1H-1,2,3-triazol-4-yl)-2-methyl-pyridin-3-yl)oxy)cyclohexane-1-carboxylic acid] here?
Its IC50 is 19 nM.

For `Cc1nc(-c2nnn(C)c2NC(=O)OCCC(C)C)ccc1O[C@H]1CCC[C@H](C(=O)O)C1` [Example 77, (1S,3S)-3-((6-(5-(((isopentyloxy)carbonyl)amino)-1-methyl-1H-1,2,3-triazol-4-yl)-2-methylpyridin-3-yl)oxy)cyclohexane-1-carboxylic acid], which IC50 is on record?
Its IC50 is 20 nM.

`Cc1nc(-c2nnn(C)c2NC(=O)OCC(C)C)ccc1O[C@H]1CCC[C@H](C(=O)O)C1` [Example 78, (1S,3S)-3-((6-(5-((isobutoxy-carbonyl)amino)-1-methyl-1H-1,2,3-triazol-4-yl)-2-methylpyridin-3-yl)oxy)cyclohexane-1-carboxylic acid] was tested. Which IC50 did it give?
Its IC50 is 29 nM.

For `Cc1nc(-c2nnn(C)c2NC(=O)OCC2CCCC2)ccc1O[C@H]1CCC[C@H](C(=O)O)C1` [Example 79, (1S,3S)-3-((6-(5-(((cyclopentylmethoxy)carbonyl)amino)-1-methyl-1H-1,2,3-triazol-4-yl)-2-methylpyridin-3-yl)oxy)cyclohexane-1-carboxylic acid], which IC50 is on record?
The IC50 was 32 nM.

Which IC50 does the source give for `Cc1nc(-c2nnn(C)c2NC(=O)OCc2ccccc2)ccc1O[C@H]1CCC[C@H](C(=O)O)C1` [Example 80, (1S,3S)-3-((6-(5-(((benzyloxy)carbonyl)amino)-1-methyl-1H-1,2,3-triazol-4-yl)-2-methylpyridin-3-yl)oxy)cyclohexane-1-carboxylic acid] here?
Its IC50 is 37 nM.

How did the IC50 turn out when `Cn1nnc(-c2ccc(O[C@H]3CCC[C@H](C(=O)O)C3)cn2)c1NC(=O)OCC1CCC1` [Example 81] was run?
Its IC50 is 56 nM.

With `C[C@@H](OC(=O)Nc1c(-c2ccc(O[C@H]3CCC[C@H](C(=O)O)C3)cn2)nnn1C)C1CC1` [Example 82, (1S,3S)-3-((6-(5-((((R)-1-cyclopropyl-ethoxy)carbonyl)amino)-1-methyl-1H-1,2,3-triazol-4-yl)pyridin-3-yl)oxy)cyclohexane-1-carboxylic acid] as the molecule, how does the IC50 read?
Its IC50 is 79 nM.

With `Cn1nnc(-c2ccc(O[C@H]3CCC[C@H](C(=O)O)C3)cn2)c1NC(=O)OCC1CC1` [Example 83, (1S,3S)-3-((6-(5-(((cyclopropyl-methoxy)carbonyl)amino)-1-methyl-1H-1,2,3-triazol-4-yl)pyridin-3-yl)oxy)cyclohexane-1-carboxylic acid] as the molecule, how does the IC50 read?
The IC50 was 178 nM.

`Cn1nnc(-c2ccc(O[C@H]3CCC[C@H](C(=O)O)C3)cn2)c1NC(=O)OCCC1CC1` [Example 84, (1S,3S)-3-((6-(5-(((2-cyclopropyl-ethoxy)carbonyl)amino)-1-methyl-1H-1,2,3-triazol-4-yl)pyridin-3-yl)oxy)cyclohexane-1-carboxylic acid] was tested. Which IC50 did it give?
The IC50 was 38 nM.

Which IC50 does the source give for `CC(C)CCOC(=O)Nc1c(-c2ccc(O[C@H]3CCC[C@H](C(=O)O)C3)cn2)nnn1C` [Example 85, (1S,3S)-3-((6-(5-(((isopentyloxy)carbonyl)amino)-1-methyl-1H-1,2,3-triazol-4-yl)pyridin-3-yl)oxy)cyclohexane-1-carboxylic acid] here?
The IC50 was 115 nM.

`Cn1nnc(-c2ccc(O[C@H]3CCC[C@H](C(=O)O)C3)cn2)c1NC(=O)OCC1CCCCC1` [Example 86, (1S,3S)-3-((6-(5-(((cyclohexyl-methoxy)carbonyl)amino)-1-methyl-1H-1,2,3-triazol-4-yl)pyridin-3-yl)oxy)cyclohexane-1-carboxylic acid] was tested. Which IC50 did it give?
The IC50 was 36 nM.

For `CC(C)COC(=O)Nc1c(-c2ccc(O[C@H]3CCC[C@H](C(=O)O)C3)cn2)nnn1C` [Example 87, (1S,3S)-3-((6-(5-((isobutoxy-carbonyl)amino)-1-methyl-1H-1,2,3-triazol-4-yl)pyridin-3-yl)oxy)cyclohexane-1-carboxylic acid], which IC50 is on record?
The IC50 was 219 nM.

Which IC50 does the source give for `CCCCCOC(=O)Nc1c(-c2ccc(O[C@H]3CCC[C@H](C(=O)O)C3)cn2)nnn1C` [Example 88] here?
The IC50 was 34 nM.

Which IC50 does the source give for `CCCCOC(=O)Nc1c(-c2ccc(O[C@H]3CCC[C@H](C(=O)O)C3)cn2)nnn1C` [Example 89, (1S,3S)-3-((6-(5-((butoxycarbonyl)amino)-1-methyl-1H-1,2,3-triazol-4-yl)pyridin-3-yl)oxy)cyclohexane-1-carboxylic acid] here?
The IC50 was 66 nM.

`Cn1nnc(-c2ccc(O[C@H]3CCC[C@H](C(=O)O)C3)cn2)c1NC(=O)OC1CCCC1` [Example 90, (1S,3S)-3-((6-(5-(((cyclopentyloxy)carbonyl)amino)-1-methyl-1H-1,2,3-triazol-4-yl)pyridin-3-yl)oxy)cyclohexane-1-carboxylic acid] was tested. Which IC50 did it give?
The IC50 was 149 nM.

With `C[C@@H](OC(=O)Nc1c(-c2ccc(O[C@H]3CCC[C@H](C(=O)O)C3)cn2)nnn1C)c1ccccc1` [Example 91, (1S,3S)-3-((6-(1-methyl-5-((((R)-1-phenylethoxy)carbonyl)amino)-1H-1,2,3-triazol-4-yl)pyridin-3-yl)oxy)cyclohexane-1-carboxylic acid] as the molecule, how does the IC50 read?
Its IC50 is 35 nM.
